The series is described as follows: Waters SunFire C18, 150 × 2.1 mm, 3.5 µm, 35 °C, 0.3 mL/min, estimated dead time 1.1 min; A: water + 0.1% formic acid; B: acetonitrile + 0.1% formic acid; gradient (min/%B) 0/20 5/20 20/50 25/100. Conditions: stereoisomer not certain.

Regarding `CC[N+]1(CC)CCC(=C(c2ccccc2)c2ccccc2)C1C` (stereo not drawn), the LC retention time was 9.6 min.
For `Cc1cccc(Nc2ccncc2S(=O)(=O)NC(=O)NC(C)C)c1` the value was 8.5 min.
With `C[N+]1(CCC(O)(c2ccccc2)c2cccs2)CCOCC1` (stereo not drawn) the figure was 2.2 min; with `Cn1cnc2c1c(=O)[nH]c(=O)n2C`, 2 min.
With `Nc1nc(N)c2nc(-c3ccccc3)c(N)nc2n1` the figure was 2.9 min; with `CC(=O)CCCCn1c(=O)c2c(ncn2C)n(C)c1=O`, 5.4 min; with `CCN(CC)CCOCCOC(=O)C1(c2ccccc2)CCCC1`, 10 min.
Take `COC(=O)C(c1ccccc1)C1CCCCN1` (stereo not drawn): the LC retention time is 1.8 min.
With `CC1(C)OC2CC3C4CCC5=CC(=O)C=CC5(C)C4C(O)CC3(C)C2(C(=O)CO)O1` (stereo not drawn) the figure was 16.5 min.
For `CC(=O)Nc1nnc(S(N)(=O)=O)s1` the value was 2.3 min; for `CC(C)(C)C(=O)SCC(=O)C1(O)CCC2C3CCC4=CC(=O)CCC4(C)C3C(O)CC21C` (stereo not drawn), 24 min; for `CN1C(C(=O)Nc2ccc(O)cn2)=C(O)c2ccccc2S1(=O)=O`, 15.8 min.
For `CC(C)[N+]1(C)C2CCC1CC(OC(=O)C(CO)c1ccccc1)C2` (stereo not drawn) the value was 1.4 min.
As for `COc1ccc2nc(S(=O)Cc3ncc(CO)c(OC)c3C)[nH]c2c1` (stereo not drawn), the LC retention time was 2.7 min.
For `C[N+]12CCC(CC1)C(OC(=O)C(O)(c1ccccc1)c1ccccc1)C2` (stereo not drawn) the value was 3.4 min; for `CCC1(O)CCC2C3CCC4=CC(=O)CCC4=C3C=CC21CC` (stereo not drawn), 22.9 min.
For `COc1cc(OC)c(C(=O)CCCN2CCCC2)c(OC)c1` the value was 2 min; for `CCCCC1C(=O)N(c2ccccc2)N(c2ccccc2)C1=O`, 24 min; for `CCCCNc1ccc(C(=O)OCCN(C)C)cc1`, 4.9 min.
For `CN(C)CCOC(c1ccccc1)c1ccccc1` the value was 5.1 min; for `CS(=O)(=O)c1ccc(C2=C(c3ccccc3)C(=O)OC2)cc1`, 16.8 min.
With `C[N+]1(C)CCCC(OC(=O)C(O)(c2ccccc2)c2ccccc2)C1` (stereo not drawn), the LC retention time was 3 min.
For `CN(C)CCCN1c2ccccc2CCc2ccccc21` the value was 9.6 min; for `Cc1cccc(C(C)c2cnc[nH]2)c1C` (stereo not drawn), 2.8 min; for `Cc1cc(=O)n(-c2ccccc2)n1C`, 4.1 min.
With `CN(C)CCCN1c2ccccc2Sc2ccccc21` the figure was 8.8 min.
Regarding `CCCCOc1cc(C(=O)OCCN(CC)CC)ccc1N`, the LC retention time was 4.2 min.
As for `COc1ccc2nc(S(=O)Cc3ncc(C)c(OC)c3C)[nH]c2c1` (stereo not drawn), the LC retention time was 4.2 min.
With `CC(C)[N+](C)(CCC(C(N)=O)(c1ccccc1)c1ccccc1)C(C)C` the figure was 3.4 min; with `COc1ccccc1OCC(O)CO` (stereo not drawn), 5 min; with `COC(=O)C1CC2=CC(=O)CCC2(C)C23OC2CC2(C)C(CCC24CCC(=O)O4)C13` (stereo not drawn), 15.1 min.
For `CCCCCc1cc(O)c2c(c1)OC(C)(C)C1CCC(C(=O)O)=CC21` (stereo not drawn) the value was 25.1 min; for `CC(C)[N+](C)(CCOC(=O)C1c2ccccc2Oc2ccccc21)C(C)C`, 9.8 min.
As to `COc1cccc(C2(O)CCCCC2CN(C)C)c1` (stereo not drawn), the LC retention time was 1.9 min.
With `CCN(CC)C(=O)c1cccnc1` the figure was 2.4 min; with `Cc1onc(-c2ccccc2)c1-c1ccc(S(N)(=O)=O)cc1`, 18.5 min; with `CN1C(C(=O)Nc2ccccn2)=C(O)c2ccccc2S1(=O)=O`, 15.2 min.
For `CC1CC2C3CCC4=CC(=O)C=CC4(C)C3C(=O)CC2(C)C1(O)C(=O)CO` (stereo not drawn) the value was 15.1 min.

Source of the values: the RepoRT retention time repository (doi:10.1016/j.aca.2011.01.006).
